Measured values published in ChEMBL document CHEMBL1201862, “PubChem BioAssay data set” (2004).
Calls of active or inactive are those of the source.

Assays:
[1] = molecular target: G-protein coupled receptor 183 (Homo sapiens, UniProt P32249); test: SAR confirmation of small molecule antagonists of the EBI2 receptor via a luminescent beta-arrestin assa.; format: functional
Phospholipase D2 = Phospholipase D2 (Homo sapiens, UniProt O14939); test: PLD2 Cellular Concentration Response Study.; format: functional
Sequence of Phospholipase D2 (O14939 whole entry): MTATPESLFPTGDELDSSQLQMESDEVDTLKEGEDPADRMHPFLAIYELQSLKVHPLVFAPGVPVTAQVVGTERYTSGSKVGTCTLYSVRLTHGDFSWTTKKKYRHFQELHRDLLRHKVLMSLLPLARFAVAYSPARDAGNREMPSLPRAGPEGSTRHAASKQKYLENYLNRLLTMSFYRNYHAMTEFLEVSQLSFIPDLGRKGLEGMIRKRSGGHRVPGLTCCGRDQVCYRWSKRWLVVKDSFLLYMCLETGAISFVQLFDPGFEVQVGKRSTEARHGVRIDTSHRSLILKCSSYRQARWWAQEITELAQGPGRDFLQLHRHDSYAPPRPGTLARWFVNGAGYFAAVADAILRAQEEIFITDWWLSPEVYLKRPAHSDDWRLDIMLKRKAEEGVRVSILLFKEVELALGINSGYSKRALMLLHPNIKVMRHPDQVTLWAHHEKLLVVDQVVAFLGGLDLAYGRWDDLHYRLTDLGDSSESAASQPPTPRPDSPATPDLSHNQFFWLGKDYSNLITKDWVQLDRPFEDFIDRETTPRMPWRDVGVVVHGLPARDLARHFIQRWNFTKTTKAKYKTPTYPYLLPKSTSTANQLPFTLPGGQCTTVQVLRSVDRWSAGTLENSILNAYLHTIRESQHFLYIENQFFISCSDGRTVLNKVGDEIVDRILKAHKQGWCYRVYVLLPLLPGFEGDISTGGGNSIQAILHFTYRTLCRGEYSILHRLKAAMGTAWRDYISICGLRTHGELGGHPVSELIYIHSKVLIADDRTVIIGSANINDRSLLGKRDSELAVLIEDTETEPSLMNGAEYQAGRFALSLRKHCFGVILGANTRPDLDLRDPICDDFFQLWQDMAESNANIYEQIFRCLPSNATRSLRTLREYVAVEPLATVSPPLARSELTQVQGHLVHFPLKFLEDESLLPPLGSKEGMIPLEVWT

Phospholipase D1 = Phospholipase D1 (Homo sapiens, UniProt Q13393); test: PLD1 Cellular Concentration Response Study.; format: functional
Sequence of Phospholipase D1 (Q13393 whole entry): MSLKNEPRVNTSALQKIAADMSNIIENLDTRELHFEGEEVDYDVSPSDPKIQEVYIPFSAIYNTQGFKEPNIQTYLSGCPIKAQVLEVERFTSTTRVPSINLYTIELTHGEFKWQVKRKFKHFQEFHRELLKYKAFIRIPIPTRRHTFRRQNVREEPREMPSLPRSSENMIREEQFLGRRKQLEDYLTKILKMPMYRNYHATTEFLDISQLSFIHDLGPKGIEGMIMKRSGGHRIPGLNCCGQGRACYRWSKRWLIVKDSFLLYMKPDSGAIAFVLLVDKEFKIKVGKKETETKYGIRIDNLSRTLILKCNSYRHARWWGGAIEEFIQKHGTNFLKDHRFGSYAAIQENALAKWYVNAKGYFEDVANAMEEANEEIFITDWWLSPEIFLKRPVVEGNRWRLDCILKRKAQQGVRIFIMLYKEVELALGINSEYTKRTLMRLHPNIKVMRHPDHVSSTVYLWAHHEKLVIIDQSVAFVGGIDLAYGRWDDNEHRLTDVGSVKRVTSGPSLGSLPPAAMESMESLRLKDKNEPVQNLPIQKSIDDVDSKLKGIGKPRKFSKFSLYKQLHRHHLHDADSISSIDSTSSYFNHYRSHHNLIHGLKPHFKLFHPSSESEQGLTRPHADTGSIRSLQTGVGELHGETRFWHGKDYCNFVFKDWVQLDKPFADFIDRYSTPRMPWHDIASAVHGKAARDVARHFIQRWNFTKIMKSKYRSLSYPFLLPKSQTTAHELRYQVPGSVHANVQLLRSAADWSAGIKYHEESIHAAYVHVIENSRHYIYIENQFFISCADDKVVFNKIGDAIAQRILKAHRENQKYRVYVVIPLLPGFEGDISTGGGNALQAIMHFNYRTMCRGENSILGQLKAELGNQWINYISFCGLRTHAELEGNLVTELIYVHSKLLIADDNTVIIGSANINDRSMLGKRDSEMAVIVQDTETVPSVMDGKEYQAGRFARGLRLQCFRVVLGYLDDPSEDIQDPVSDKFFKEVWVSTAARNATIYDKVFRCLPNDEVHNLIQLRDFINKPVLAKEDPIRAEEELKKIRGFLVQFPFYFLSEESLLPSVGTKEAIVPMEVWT

[2] = P. falciparum Dd2 growth inhibitors, dose response, SYBR Green, cherry-picked samples (AID 1159567); format: functional, cell-based
[3] = HepG2 cell cytotoxicity, dose response, cytotoxicity control, cherry-picked samples (AID 1159577); format: functional, cell-based
[4] = HepG2 cell cytotoxicity, dose response, cytotoxicity control, plate reader, dry powder samples (AID 1159569); format: functional, cell-based;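 also: inhibitor potency with signal falling toward the positive control level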
[5] = P. falciparum Dd2 growth inhibitors, dose response, SYBR Green, dry powder samples (AID 1159566); format: functional, cell-based;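 also: potency for growth inhibition with lower SYBR green DNA signal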
[6] = P. falciparum 3D7-ScDHODH growth inhibitors, dose response, SYBR Green, dry powder samples (AID 1159570); format: functional, cell-based;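 also: parasite growth measured after 72 hours of compound exposure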
[7] = P. falciparum ATP4 D1247Y mutant growth inhibitors, dose response, NITD609-resistant line, SYBR Green, dry powder (AID 1159571); format: functional, cell-based;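 also: parasites synchronized at ring stage by sorbitol before testing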
[8] = molecular target: Metabotropic glutamate receptor 7 (Homo sapiens, UniProt Q14831); test: mGlu7 positive allosteric modulators, dose response, cell-based, calcium mobilization, Galpha15 (AID 743384); format: functional
Sequence of Metabotropic glutamate receptor 7 (Q14831 whole entry): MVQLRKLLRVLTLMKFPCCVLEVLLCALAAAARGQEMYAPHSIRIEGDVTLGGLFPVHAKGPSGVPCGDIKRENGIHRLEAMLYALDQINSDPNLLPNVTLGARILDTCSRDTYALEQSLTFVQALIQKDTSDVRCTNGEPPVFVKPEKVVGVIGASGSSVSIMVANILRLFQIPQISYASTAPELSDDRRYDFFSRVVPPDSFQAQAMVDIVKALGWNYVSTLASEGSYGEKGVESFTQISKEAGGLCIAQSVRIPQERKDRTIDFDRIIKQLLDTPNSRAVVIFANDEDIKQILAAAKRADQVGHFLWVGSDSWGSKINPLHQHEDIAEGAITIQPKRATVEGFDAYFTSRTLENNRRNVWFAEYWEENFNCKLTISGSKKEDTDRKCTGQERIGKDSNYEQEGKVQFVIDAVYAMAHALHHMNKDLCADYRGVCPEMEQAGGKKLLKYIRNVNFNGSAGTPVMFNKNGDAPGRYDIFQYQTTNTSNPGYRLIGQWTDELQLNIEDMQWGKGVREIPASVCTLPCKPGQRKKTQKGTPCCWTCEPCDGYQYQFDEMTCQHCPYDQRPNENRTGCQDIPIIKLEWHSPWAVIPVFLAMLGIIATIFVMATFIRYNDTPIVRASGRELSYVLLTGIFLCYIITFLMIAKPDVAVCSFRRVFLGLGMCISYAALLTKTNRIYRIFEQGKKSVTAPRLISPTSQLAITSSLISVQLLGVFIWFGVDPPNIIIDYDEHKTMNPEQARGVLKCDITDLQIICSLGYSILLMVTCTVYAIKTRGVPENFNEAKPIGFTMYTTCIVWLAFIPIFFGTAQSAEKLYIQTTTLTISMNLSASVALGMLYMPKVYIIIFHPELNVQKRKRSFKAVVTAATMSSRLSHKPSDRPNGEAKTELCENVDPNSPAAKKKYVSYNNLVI

[9] = A549 cell cytotoxicity, dose response, cytotoxicity control, CellTiter-Glo luminescence, dry powder, set 5 (AID 743158); format: functional, cell-based
[10] = HepG2 cell cytotoxicity, dose response, cytotoxicity control, ATP luminescence, dry powder, set 2 (AID 743129); format: functional, cell-based
[11] = HEK293 cell cytotoxicity, dose response, cytotoxicity control, ATP luminescence, dry powder, set 3 (AID 743131); format: functional, cell-based
[12] = Dose-response inhibition of insulin secretion in a rat insulinoma line at 5 mM glucose (AID 1117331); format: functional, cell-based; conditions: INS-1E
cells = format: functional, cell-based; conditions: INS-1E

Sequence of G-protein coupled receptor 183 (P32249 whole entry): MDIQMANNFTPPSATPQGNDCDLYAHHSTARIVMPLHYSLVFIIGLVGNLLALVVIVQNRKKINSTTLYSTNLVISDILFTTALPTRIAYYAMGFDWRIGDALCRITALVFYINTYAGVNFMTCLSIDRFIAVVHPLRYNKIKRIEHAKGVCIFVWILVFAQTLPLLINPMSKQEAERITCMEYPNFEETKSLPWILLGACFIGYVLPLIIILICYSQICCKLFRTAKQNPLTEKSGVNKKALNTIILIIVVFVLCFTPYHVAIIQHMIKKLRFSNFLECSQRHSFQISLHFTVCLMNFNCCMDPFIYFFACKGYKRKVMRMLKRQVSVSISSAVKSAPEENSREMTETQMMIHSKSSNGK

With `O=C(/C=C/c1ccc(F)cc1)N1CCN(S(=O)(=O)c2ccccc2F)CC1` the IC50 [1] was 0.0194 µM (active).
For `O=C(NCCN1CCC2(CC1)C(=O)NCN2Cc1ccc(Cl)cc1)c1ccc2ccccc2c1`, the IC50 (Phospholipase D2) was 1.54 µM (active) and the IC50 (Phospholipase D1) was 6.78 µM (active).
In the case of `O=C(C1CCC1)N1C[C@@H]2N[C@H](C1)[C@@H]2c1ccc(/C=C/c2ccccc2)cc1`, the AC50 [2] is reported as 3.76 µM (active) and the AC50 [3] is reported as 11.5 µM (active).
In the case of `O=C(Nc1ccc(C(F)(F)F)cc1)N1C[C@@H]2N[C@H](C1)[C@@H]2c1ccc(-c2cccnc2)cc1`, the AC50 [2] is reported as 1.12 µM (active), the AC50 [4] is reported as 18.6 µM (active) and the AC50 [5] is reported as 0.0354 µM (active). For the same molecule, the AC50 [6] was 0.0146 µM (active) and the AC50 [7] was 0.022 µM (active).
For `COC(=O)c1ccc(-n2c(C)cc(C(=O)CSc3ccc(N(C)C(C)=O)cc3)c2C)cc1`, the EC50 [8] was 10 µM (active).
With `CCOC(=O)c1c(-c2ccc(C(C)(C)C)cc2)csc1NC(=O)CN1CCN(CC)CC1` the AC50 [9] was 11.9 µM (active), the AC50 [10] was 15.3 µM (active) and the AC50 [11] was 9.03 µM (active).
In the case of `Cc1cc2c(OCC(CNC(C)(C)C)OC(=O)c3ccccc3)cccc2[nH]1` (stereo unspecified) [BOPINDOLOL], the IC50 [12] is reported as 14.6 µM (inactive) and the IC50 (cells) is reported as > 33.3 µM (inactive).
